According to patent US10052392B2, “Low molecular weight polyethylene glycol drug conjugates having improved drug biological activity” (JENKEM TECHNOLOGY CO., LTD. (TIANJIN), priority 2013, dated 2018):
Like-named read-outs stand apart in the source and are kept apart here.

Legend:
[1] = tested on: Caco-2 cell monolayer; assay: Caco-2 cell monolayer transmembrane transport (unidirectional and bidirectional); conditions: for Papp (*10^−6)A→B: Caco-2, A→B; for Papp (*10^−6)A→B / Papp (*10^−6)B→A: 90 min incubation; for Papp (*10^−6)B→A: Caco-2, B→A; for Papp (B→A)/Papp (A→B): Caco-2 efflux ratio, >2 suggests efflux transporter
Description: (§2) Wherein dQ is an accumulated penetration amount of a drug receiving pond with a measure unit pmol; dt is incubation time with a measure unit min; A is a diffusion area with a measure unit cm^2; C0 is an initial administration concentration of an administrating pond with a measure unit μmol. L^−1; Papp has a measure unit cm/s.
(§3) An evaluation objective of the bidirectional transport is to preliminary observe that the transmembrane transport of the object to be tested has active transport procedure mediated by an efflux transporter.

[2] = tested on: K562; assay: Inhibition of cell proliferation, CTG method, 72 hours; format: cell-based; conditions: K562 cells
Description: (§1) Cells are cultured under a complete culture medium; when cells are attached to the wall, drug of different concentrations is added in each tumor cell line for treatment, and a positive control, a blank control and a solvent control are set. Cells are incubated for 72 hours and then CTG method is used for detection.

[3] = tested on: KU812; assay: as above; format: cell-based; conditions: KU812 cells
Description: as §1

[4] = tested on: PC-3; assay: as above; format: cell-based; conditions: PC-3 cells
Description: as §1

[5] = tested on: SUP-B15; assay: as above; format: cell-based; conditions: SUP-B15 cells
Description: as §1

[6] = Absolute bioavailability, intravenous vs intragastric administration; format: in vivo; conditions: male SD rat, intragastric vs tail intravenous injection
Description: Animal: male SD rat Groups of the experiment: intravenous injection group and oral administration group, four rats being provided for each rat Administration manner: tail intravenous injection, intragastric administration Data processing: an area under a curve is calculated for intravenous injection and oral administration by using a trapezoidal method, and a bioavailability is calculated by using the following formula: […]

[7] = Caco-2 cell monolayer transmembrane transport (unidirectional and bidirectional); conditions: human, Caco-2
Description: as §2, §3

[8] = tested on: Caco-2 cell monolayer
Description: as §2, §3

With “Single End Substituted Pentaethyleneglycol-dorzolamide [DZA-01]” the “Papp (*10^−6)A→B” value [1] was 11.54 ± 0.36 *10^−6 cm/s, the “Papp (*10^−6)B→A” value [1] was 15.50 ± 0.06 *10^−6 cm/s and the “Papp (B→A)/Papp (A→B)” value [1] was 1.34.
In the case of Cc1nc(Nc2ncc(C(=O)Nc3c(C)cccc3Cl)s2)cc(N2CCN(CCOCCOCCOCCOCCOCCN3CCN(c4cc(Nc5ncc(C(=O)Nc6c(C)cccc6Cl)s5)nc(C)n4)CC3)CC2)n1 [DSTN-42, Double End-substituted Tetraethylene Glycol-dasatinib], the IC50 [2] is reported as 500 pM, the Maximum inhibition rate [2] is reported as 80.34% and the IC50 [3] is reported as 790 pM. The Maximum inhibition rate [3] was 96.91%, the Maximum inhibition rate [4] was 30.97% and the IC50 [5] was 50000 pM. For the same molecule, the Maximum inhibition rate [5] was 93.36%, the “Papp (*10^−6)A→B” value [1] was 4.57 ± 0.87 *10^−6 cm/s and the “Papp (*10^−6)B→A” value [1] was 11.43 ± 0.72 *10^−6 cm/s. The “Papp (B→A)/Papp (A→B)” value [1] was 2.50.
CN(C)CCc1c[nH]c2ccc(CS(=O)(=O)N(C)CCOCCOCCOCCOCCOCCN(C)S(=O)(=O)Cc3ccc4[nH]cc(CCN(C)C)c4c3)cc12 [SMQT-01, Double End-substituted Hexaethyleneglycol-sumatriptan] gave a bioavailability ([6]; blood, oral) of 17%, a Papp A→B at 90 min [7] of 10.6 ± 0.36 ×10⁻⁶ cm/s and a Papp B→A at 90 min [7] of 15.5 ± 0.06 ×10⁻⁶ cm/s. For the same molecule, the efflux ratio at 90 min [7] was 1.47.
In the case of CN(C)CCc1c[nH]c2ccc(CS(=O)(=O)N(C)CCOCCOCCOCCOCCN(C)S(=O)(=O)Cc3ccc4[nH]cc(CCN(C)C)c4c3)cc12 [SMQT-02, Double End-substituted Pentaethyleneglycol-sumatriptan], the absolute bioavailability [6] is reported as 23%, the “Papp (*10^−6)A→B” value [8] is reported as 9.87 ± 0.03 *10^−6 cm/s and the “Papp (*10^−6)B→A” value [8] is reported as 14.52 ± 0.12 *10^−6 cm/s.
Molecule CCN[C@H]1C[C@H](C)S(=O)(=O)c2sc(S(=O)(=O)NCCOCC(COCCNS(=O)(=O)c3cc4c(s3)S(=O)(=O)[C@@H](C)C[C@@H]4NCC)(COCCNS(=O)(=O)c3cc4c(s3)S(=O)(=O)[C@@H](C)C[C@@H]4NCC)COCCNS(=O)(=O)c3cc4c(s3)S(=O)(=O)[C@@H](C)C[C@@H]4C)cc21 [DZA-06, Four-Branch Ethyleneglycol-dorzolamide Conjugate] has a Papp A→B at 90 min [7] of 8.86 ± 0.51 ×10⁻⁶ cm/s, a Papp B→A at 90 min [7] of 18.1 ± 0.32 ×10⁻⁶ cm/s and an efflux ratio at 90 min [7] of 2.05.
For CN(C)CCc1c[nH]c2ccc(CS(=O)(=O)N(C)CCOCCOCCN(C)S(=O)(=O)Cc3ccc4[nH]cc(CCN(C)C)c4c3)cc12 [SMQT-03, Double End-substituted Triethylene Glycol-sumatriptan], the absolute bioavailability [6] was 25%, the “Papp (*10^−6)A→B” value [8] was 6.25 ± 0.51 *10^−6 cm/s and the “Papp (*10^−6)B→A” value [8] was 11.06 ± 0.21 *10^−6 cm/s.
For Cc1nc(Nc2ncc(C(=O)Nc3c(C)cccc3Cl)s2)cc(N2CCN(CCOCCOCCOCCOCCOCCOCCOCCN3CCN(c4cc(Nc5ncc(C(=O)Nc6c(C)cccc6Cl)s5)nc(C)n4)CC3)CC2)n1 [DSTN-62, Double Endhexaethylene Glycol-dasatinib], the IC50 [2] was 340 pM, the Maximum inhibition rate [2] was 81.76% and the IC50 [3] was 490 pM. For the same molecule, the Maximum inhibition rate [3] was 96.00%, the Maximum inhibition rate [4] was 29.74% and the IC50 [5] was 60000 pM. The Maximum inhibition rate [5] was 81.47%, the “Papp (*10^−6)A→B” value [1] was 6.44 ± 0.11 *10^−6 cm/s and the “Papp (*10^−6)B→A” value [1] was 15.01 ± 0.59 *10^−6 cm/s. The “Papp (B→A)/Papp (A→B)” value [1] was 2.33.
In the case of “Double End Substituted Hexaethyleneglycol-dorzolamide [DZA-02]”, the “Papp (*10^−6)A→B” value [1] is reported as 12.32 ± 0.34 *10^−6 cm/s, the “Papp (*10^−6)B→A” value [1] is reported as 25.50 ± 1.21 *10^−6 cm/s and the “Papp (B→A)/Papp (A→B)” value [1] is reported as 2.07.
For CCN[C@H]1C[C@H](C)S(=O)(=O)c2sc(S(=O)(=O)NCCOCCOCCOCCOCCOCCOCCOCCOCCOCCOCCOCCNS(=O)(=O)c3cc4c(s3)S(=O)(=O)[C@@H](C)C[C@@H]4NCC)cc21 [DZA-03, Double End Substituted Odecylethyleneglycol-dorzolamide], the “Papp (*10^−6)A→B” value [1] was 8.96 ± 0.35 *10^−6 cm/s, the “Papp (*10^−6)B→A” value [1] was 23.67 ± 0.45 *10^−6 cm/s and the “Papp (B→A)/Papp (A→B)” value [1] was 2.64.
